# Data: ChEMBL document CHEMBL4507319 (2021)
# Tests used:
# [1] = target: High affinity nerve growth factor receptor (Homo sapiens) (UniProt P04629); details: Compound concentration 1000.0 nM
# [2] = target: Serine/threonine-protein kinase WNK1 (Homo sapiens) (UniProt Q9H4A3); details: Compound concentration 1000.0 nM
# [3] = test system: Mast/stem cell growth factor receptor Kit (Homo sapiens), P10721 [L576P]; details: Compound concentration 1000.0 nM
# [4] = target: Dual specificity mitogen-activated protein kinase kinase 1 (Homo sapiens) (UniProt Q02750); details: Compound concentration 1000.0 nM
# [5] = target: Serine/threonine-protein kinase RIO1 (Homo sapiens) (UniProt Q9BRS2); details: Compound concentration 1000.0 nM
# [6] = target: NT-3 growth factor receptor (Homo sapiens) (UniProt Q16288); details: Compound concentration 1000.0 nM
# Chain of NT-3 growth factor receptor (Homo sapiens) (Q16288 32-839 limits assumed): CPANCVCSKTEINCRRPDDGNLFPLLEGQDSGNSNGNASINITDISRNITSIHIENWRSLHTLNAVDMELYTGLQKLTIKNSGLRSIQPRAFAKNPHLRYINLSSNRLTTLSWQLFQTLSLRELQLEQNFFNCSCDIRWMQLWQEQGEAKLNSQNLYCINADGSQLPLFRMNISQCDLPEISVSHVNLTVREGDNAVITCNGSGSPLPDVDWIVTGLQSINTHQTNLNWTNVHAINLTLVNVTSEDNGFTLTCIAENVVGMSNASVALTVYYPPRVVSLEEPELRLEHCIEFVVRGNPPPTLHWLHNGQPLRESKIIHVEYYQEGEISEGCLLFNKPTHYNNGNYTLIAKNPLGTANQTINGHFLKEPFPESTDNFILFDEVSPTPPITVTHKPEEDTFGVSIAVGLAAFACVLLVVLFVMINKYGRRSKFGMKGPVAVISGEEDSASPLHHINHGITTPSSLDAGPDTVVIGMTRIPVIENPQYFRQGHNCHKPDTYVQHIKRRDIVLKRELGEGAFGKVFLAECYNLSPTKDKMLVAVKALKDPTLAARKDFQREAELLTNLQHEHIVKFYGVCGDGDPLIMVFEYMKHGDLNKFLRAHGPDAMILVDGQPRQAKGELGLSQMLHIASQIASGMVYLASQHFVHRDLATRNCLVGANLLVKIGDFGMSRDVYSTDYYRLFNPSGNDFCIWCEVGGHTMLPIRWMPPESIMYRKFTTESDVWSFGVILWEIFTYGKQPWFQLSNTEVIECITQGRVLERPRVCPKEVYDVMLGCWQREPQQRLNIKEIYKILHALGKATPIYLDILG
# [7] = target: T1, Beta-adrenergic receptor kinase 1 (Homo sapiens) (UniProt P25098); details: Compound concentration 1000.0 nM
# T1 sequence (whole entry): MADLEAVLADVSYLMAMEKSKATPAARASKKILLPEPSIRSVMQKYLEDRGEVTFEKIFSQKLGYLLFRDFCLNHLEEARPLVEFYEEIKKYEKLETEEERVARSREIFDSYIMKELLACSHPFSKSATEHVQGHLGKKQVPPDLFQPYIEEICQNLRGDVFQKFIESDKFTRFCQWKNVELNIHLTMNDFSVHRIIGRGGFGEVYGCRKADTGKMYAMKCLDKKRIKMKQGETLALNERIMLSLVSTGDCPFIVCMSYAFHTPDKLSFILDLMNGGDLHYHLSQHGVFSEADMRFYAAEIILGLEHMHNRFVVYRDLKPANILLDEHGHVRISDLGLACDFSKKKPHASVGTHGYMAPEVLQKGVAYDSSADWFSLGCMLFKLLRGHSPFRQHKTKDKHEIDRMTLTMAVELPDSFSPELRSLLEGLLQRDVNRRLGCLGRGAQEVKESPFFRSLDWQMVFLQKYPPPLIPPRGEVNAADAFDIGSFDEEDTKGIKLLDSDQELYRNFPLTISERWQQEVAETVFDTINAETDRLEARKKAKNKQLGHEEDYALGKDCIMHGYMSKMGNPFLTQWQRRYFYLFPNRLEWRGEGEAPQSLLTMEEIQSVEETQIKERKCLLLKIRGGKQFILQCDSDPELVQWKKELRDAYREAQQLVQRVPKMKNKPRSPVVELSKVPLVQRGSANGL
# [8] = target: Macrophage colony-stimulating factor 1 receptor (Homo sapiens) (UniProt P07333); details: Compound concentration 1000.0 nM
# [9] = target: T2, Serine/threonine-protein kinase BRSK2 (Homo sapiens) (UniProt Q8IWQ3); details: Compound concentration 1000.0 nM
# T2 sequence (whole entry): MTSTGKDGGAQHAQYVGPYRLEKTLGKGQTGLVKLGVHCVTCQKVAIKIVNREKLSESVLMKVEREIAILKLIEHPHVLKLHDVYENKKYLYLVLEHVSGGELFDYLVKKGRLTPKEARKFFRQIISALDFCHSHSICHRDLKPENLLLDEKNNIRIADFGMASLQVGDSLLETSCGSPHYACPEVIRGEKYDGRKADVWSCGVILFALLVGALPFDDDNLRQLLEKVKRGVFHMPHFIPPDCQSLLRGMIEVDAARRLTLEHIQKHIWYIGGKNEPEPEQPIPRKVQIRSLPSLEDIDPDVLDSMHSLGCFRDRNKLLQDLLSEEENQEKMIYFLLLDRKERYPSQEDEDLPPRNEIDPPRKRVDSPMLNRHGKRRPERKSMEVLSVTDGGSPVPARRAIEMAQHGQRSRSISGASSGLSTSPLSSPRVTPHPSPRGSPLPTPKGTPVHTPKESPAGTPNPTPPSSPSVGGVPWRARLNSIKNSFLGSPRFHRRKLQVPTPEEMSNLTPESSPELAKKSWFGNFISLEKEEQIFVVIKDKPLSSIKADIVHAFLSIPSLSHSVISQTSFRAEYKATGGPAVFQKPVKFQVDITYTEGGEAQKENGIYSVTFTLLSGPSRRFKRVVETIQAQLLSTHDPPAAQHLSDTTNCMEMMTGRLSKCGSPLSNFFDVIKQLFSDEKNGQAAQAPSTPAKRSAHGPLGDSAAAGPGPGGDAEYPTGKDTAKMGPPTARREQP
# [10] = target: Mitogen-activated protein kinase 1 (Homo sapiens) (UniProt P28482); details: Compound concentration 1000.0 nM
# Chain of Mitogen-activated protein kinase 1 (Homo sapiens) (P28482 whole entry): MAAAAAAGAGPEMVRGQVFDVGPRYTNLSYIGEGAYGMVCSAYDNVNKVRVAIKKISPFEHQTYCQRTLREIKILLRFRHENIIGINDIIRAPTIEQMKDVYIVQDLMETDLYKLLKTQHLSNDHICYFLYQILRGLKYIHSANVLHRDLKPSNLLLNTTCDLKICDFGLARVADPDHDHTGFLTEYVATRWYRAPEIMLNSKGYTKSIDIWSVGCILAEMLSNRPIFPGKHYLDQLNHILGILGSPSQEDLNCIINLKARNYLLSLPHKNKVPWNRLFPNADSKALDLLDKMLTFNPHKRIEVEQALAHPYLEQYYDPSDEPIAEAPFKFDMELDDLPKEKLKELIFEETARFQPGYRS
# [11] = target: Mitogen-activated protein kinase 4 (Homo sapiens) (UniProt P31152); details: Compound concentration 1000.0 nM
# [12] = target: Mitogen-activated protein kinase kinase kinase 6 (Homo sapiens) (UniProt O95382); details: Compound concentration 1000.0 nM
# Chain of Mitogen-activated protein kinase kinase kinase 6 (Homo sapiens) (O95382 whole entry): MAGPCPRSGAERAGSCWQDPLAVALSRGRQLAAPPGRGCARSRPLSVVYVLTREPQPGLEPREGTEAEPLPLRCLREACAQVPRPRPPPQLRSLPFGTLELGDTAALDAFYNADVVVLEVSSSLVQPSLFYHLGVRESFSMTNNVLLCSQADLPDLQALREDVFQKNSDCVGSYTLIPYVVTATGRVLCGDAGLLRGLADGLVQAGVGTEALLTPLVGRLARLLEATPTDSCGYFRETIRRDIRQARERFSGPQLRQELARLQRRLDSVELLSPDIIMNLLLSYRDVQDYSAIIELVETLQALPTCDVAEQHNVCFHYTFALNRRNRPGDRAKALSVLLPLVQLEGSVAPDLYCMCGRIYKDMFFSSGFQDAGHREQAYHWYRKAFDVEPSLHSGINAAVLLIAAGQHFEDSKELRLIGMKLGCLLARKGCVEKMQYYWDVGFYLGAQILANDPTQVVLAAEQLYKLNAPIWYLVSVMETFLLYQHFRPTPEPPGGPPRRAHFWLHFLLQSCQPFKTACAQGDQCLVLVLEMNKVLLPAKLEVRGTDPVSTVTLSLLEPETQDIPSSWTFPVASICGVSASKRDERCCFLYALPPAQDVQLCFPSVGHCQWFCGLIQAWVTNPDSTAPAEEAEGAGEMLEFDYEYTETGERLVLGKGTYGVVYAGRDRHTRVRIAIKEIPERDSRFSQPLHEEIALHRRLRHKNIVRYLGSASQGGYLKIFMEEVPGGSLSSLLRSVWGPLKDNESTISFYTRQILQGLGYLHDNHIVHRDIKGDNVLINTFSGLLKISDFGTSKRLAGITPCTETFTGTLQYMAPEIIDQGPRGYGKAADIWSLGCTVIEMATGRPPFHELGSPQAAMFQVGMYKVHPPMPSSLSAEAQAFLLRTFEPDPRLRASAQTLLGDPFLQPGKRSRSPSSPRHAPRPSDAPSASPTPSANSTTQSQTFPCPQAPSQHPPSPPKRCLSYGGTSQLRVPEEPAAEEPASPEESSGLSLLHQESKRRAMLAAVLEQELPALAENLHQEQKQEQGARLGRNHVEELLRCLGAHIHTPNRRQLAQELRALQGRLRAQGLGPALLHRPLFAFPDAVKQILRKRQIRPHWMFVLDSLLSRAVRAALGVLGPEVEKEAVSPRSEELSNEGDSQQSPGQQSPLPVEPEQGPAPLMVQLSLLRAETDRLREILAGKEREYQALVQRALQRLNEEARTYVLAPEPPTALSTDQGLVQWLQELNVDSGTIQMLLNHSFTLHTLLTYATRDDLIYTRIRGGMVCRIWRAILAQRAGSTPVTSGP
# [13] = target: 5-hydroxytryptamine receptor 2C (Homo sapiens) (UniProt P28335); details: Compound concentration 10.0 uM
# [14] = target: Serine/threonine-protein kinase MRCK beta (Homo sapiens) (UniProt Q9Y5S2); details: Compound concentration 1000.0 nM
# Chain of Serine/threonine-protein kinase MRCK beta (Homo sapiens) (Q9Y5S2 whole entry): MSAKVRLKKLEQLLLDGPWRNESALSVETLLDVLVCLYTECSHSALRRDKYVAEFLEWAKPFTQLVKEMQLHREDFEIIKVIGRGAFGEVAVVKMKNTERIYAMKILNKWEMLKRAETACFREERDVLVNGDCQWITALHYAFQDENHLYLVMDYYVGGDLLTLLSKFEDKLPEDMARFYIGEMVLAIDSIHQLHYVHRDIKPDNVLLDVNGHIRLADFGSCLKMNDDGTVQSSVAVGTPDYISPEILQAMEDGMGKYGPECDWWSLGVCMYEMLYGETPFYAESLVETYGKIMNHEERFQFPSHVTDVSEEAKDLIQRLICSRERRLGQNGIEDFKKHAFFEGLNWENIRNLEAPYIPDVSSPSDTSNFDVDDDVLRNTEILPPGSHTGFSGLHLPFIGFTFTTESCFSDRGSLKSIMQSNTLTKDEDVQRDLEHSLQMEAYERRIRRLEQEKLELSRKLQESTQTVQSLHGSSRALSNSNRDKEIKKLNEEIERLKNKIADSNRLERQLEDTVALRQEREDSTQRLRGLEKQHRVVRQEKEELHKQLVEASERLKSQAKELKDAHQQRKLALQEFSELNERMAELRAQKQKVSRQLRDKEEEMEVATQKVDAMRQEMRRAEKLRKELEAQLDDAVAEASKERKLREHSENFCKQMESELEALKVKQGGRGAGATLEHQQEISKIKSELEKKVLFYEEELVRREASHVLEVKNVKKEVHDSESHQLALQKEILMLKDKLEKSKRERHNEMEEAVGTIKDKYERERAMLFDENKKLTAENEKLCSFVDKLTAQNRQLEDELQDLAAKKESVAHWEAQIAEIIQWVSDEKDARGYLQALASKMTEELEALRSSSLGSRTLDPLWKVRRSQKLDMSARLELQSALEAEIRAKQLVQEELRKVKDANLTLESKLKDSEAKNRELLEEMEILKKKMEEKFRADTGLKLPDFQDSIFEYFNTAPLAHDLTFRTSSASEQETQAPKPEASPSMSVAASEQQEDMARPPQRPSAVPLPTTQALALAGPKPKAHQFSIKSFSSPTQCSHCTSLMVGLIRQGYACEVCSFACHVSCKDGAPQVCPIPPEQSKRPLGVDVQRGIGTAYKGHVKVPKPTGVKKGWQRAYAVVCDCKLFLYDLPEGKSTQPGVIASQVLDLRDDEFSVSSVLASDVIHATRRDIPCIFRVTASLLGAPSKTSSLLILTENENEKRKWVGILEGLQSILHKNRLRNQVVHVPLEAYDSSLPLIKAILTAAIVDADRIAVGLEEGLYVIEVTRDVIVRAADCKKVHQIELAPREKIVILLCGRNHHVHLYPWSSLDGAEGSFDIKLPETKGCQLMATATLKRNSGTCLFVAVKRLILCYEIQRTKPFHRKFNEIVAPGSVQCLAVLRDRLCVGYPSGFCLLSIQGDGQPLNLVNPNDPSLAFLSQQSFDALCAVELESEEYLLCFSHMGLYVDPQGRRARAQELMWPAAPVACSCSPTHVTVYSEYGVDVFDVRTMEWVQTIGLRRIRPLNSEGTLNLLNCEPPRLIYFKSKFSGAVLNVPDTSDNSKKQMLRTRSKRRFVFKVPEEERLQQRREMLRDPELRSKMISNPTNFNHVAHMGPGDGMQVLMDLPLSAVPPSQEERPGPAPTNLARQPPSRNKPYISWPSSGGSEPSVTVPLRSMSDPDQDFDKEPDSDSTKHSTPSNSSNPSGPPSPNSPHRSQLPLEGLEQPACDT
# [15] = target: Tyrosine-protein kinase Fgr (Homo sapiens) (UniProt P09769); details: Compound concentration 1000.0 nM
# [16] = test system: Serine/threonine-protein kinase B-raf (Homo sapiens), P15056 [V600E]; details: Compound concentration 1000.0 nM
# [17] = target: Fibroblast growth factor receptor 4 (Homo sapiens) (UniProt P22455); details: Compound concentration 1000.0 nM
# Chain of Fibroblast growth factor receptor 4 (Homo sapiens) (P22455 22-802 limits assumed): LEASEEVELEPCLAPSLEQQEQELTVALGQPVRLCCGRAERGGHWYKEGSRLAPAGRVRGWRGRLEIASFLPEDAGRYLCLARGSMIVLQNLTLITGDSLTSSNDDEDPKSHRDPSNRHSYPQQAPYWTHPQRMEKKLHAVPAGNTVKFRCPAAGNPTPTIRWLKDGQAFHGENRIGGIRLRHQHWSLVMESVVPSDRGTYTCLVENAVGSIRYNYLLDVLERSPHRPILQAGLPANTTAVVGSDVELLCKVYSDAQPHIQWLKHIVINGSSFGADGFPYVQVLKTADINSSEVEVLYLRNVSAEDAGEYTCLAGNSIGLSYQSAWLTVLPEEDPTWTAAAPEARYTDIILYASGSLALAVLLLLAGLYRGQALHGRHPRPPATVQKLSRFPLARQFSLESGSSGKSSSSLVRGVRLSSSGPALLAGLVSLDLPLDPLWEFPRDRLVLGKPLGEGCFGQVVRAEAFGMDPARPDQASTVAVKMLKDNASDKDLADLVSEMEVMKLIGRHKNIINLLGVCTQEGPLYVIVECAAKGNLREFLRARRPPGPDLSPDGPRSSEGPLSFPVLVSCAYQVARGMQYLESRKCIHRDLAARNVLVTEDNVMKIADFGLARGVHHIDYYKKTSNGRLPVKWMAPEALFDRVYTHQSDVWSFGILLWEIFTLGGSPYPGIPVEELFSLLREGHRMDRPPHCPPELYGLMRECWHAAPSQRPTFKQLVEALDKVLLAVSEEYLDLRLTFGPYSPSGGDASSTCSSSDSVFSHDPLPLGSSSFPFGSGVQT
# [18] = target: Serine/threonine-protein kinase PAK 6 (Homo sapiens) (UniProt Q9NQU5); details: Compound concentration 1000.0 nM
# [19] = target: Calcium/calmodulin-dependent protein kinase type 1 (Homo sapiens) (UniProt Q14012); details: Compound concentration 1000.0 nM
Compound,residual activity [1] [%],residual activity [2] [%],residual activity [3] [%],residual activity [4] [%],residual activity [5] [%],residual activity [6] [%],residual activity [7] [%],residual activity [8] [%],residual activity [9] [%],residual activity [10] [%],residual activity [11] [%],residual activity [12] [%],inhibition [13] [%],residual activity [14] [%],residual activity [15] [%],residual activity [16] [%],residual activity [17] [%],residual activity [18] [%],residual activity [19] [%]
CCc1ccccc1C(=O)Nc1n[nH]c2c(C)c(F)c(C3C(C#N)=C(C)N(C)C(C)=C3C#N)cc12 [BAY-3827],97,100,91,100,82,100,100,100,36,86,96,100,20,100,51,100,100,93,76
CC1=C(C#N)C(c2ccc3c(c2)c(NC(=O)c2ccccc2C)nn3C)C(C#N)=C(C)N1 [BAY-974],77,82,100,87,93,83,91,100,92,80,100,71,22.5,100,92,62,100,100,98
